Earlier results, collected in patent US20090054334A1, “Combinatorial improvement of bifunctional drug properties” (priority 2007, published 2009).

Assays:
[1] = in vivo
[2] = in vivo; remark: listed apart in the source

| bioavailability [1] [%] | half life [1] [h] | distribution into protected cellular compartments, in the blood [2] | blood-brain barrier crossing [1] | SMILES |
| --- | --- | --- | --- | --- |
| 20 | 11.3 | 72-98% |  | C=CC[C@@H]1/C=C(\C)C[C@H](C)C[C@H](OC)[C@H]2O[C@@](O)(C(=O)C(=O)N3CCCC[C@H]3C(=O)O[C@H](/C(C)=C/[C@@H]3CC[C@@H](O)[C@H](OC)C3)[C@H](C)[C@@H](O)CC1=O)[C@H](C)C[C@@H]2OC [FK506] |
| 50 |  |  | crosses the blood-brain barrier | CCC(C)(C)C(=O)C(=O)N1CCC[C@H]1C(=O)O [GPI-1485] |
